The source of these data is patent US20250136581A1, “SUBSTITUTED TRIAZOLE DERIVATIVE, PREPARATION METHOD THEREFOR, PHARMACEUTICAL COMPOSITION THEREOF, AND USE THEREOF” (SHANGHAI SIMR BIOTECHNOLOGY CO., LTD., priority 2021, published 2025).

Like-named read-outs stand apart in the source and are kept apart here.

One data set addresses human α3β3γ2 receptors (Homo sapiens (Human), UniProt P18507+P34903). Nature of the data set: 3H-flunitrazepam competition binding, human α3β3γ2 GABAA receptor. The note with it: HEK293 cell membranes, 1 nM 3H-flunitrazepam; read-out: Ki α3. The procedure:
The affinity of the compound to each subtype of GABAA receptor was determined by competing for the binding of ^3H-flunitrazepam to HEK293 cells stably expressing human α1β3γ2, α2β3γ2, α3β3γ2, and α5β3γ2 receptors.
The cells were suspended in 50 mM Tris-HCl buffer (pH=7.4), homogenized 10 times on ice with a homogenizer for 20 seconds, and centrifuged at 1000 g for 10 minutes at 4° C. The supernatant was collected, and the above steps were repeated. The supernatant was centrifuged at 4° C. (33800 g; Thermo, rotor: A27-8×50) for 60 minutes, and the precipitate was resuspended in Tris buffer (50 mM Tris-HCl, 10 mM MgCl2, 0.5 mM EDTA, 10% glycerol). Protein was measured (BCA method, Pierce), and 1 mL aliquots were prepared and stored at −80° C.
The radioligand competition binding assay was performed in a 200 μL system (96-well plate) containing 100 μL of cell membrane. The concentration of ^3H-flunitrazepam was 1 nM and the concentration of the test compound was in the range of […]. Flumazenil was used as a control. 1 μL of 2 mM flumazenil (final concentration […]) was added to the low signal control well (Low control, LC), and 1 μL of DMSO was added to the high signal control well (High control, HC). The final concentration of target membrane protein was […]. All test compound sample storage solutions were 10 mM. The working concentration of the samples was to dilute all the samples to 0.2 mM with DMSO, followed by 4-fold serial gradient dilutions for a total of 8 concentration gradients. The 96-well plate was sealed with a sealing film, and then incubated on a shaker at room temperature for 1 hour. At the same time, the GF/C filter plate was soaked in soaking buffer (0.3% PEI, stored at 4° C.) for at least 0.5 hours. After the binding incubation was completed, the cells were collected onto a GF/C filter plate using a cell harvester. The plate was washed four times with washing buffer (50 mM Tris-HCl, pH 7.4, stored at 4° C.). After drying in a 50° C. oven for 1 hour, the bottom of the dried GF/C filter plate was sealed. The residual radioactivity on the filter membrane was detected using liquid scintillation counting. 50 μL of scintillation fluid was added to each well, and the plate was sealed. The readings were taken using a Microbeta2. The inhibitory activity of the test sample on the binding of ^3H-flunitrazepam to GABAA receptor membrane proteins was calculated, and the IC50 of each test sample was calculated by dose-effect curve fitting (GraphPad Prism 5 software), and the Ki of the sample was calculated from the IC50, thus evaluating the binding ability of the sample to the various subtypes of GABAA receptors.

Data set [1] in a line: Rat pharmacokinetic experiment. Format: in vivo. The note with it: for Kp: male, SD, brain / plasma, read-out: B/P (proportion of compounds entering the brain); for Kp / Cmax: rat, po; for Cmax: plasma. The procedure: The maximum plasma concentration (Cmax) in the rat pharmacokinetic experiment was used to evaluate the absorption of the compounds in rat in vivo. The experimental compound was dissolved and then orally administered by gavage (p.o.) to male SD rats. The rats were fasted overnight before drug administration, and blood was collected via venipuncture at 0.25, 0.5, 1, 2, 4, and 7 hours post dose. Approximately 100 μL blood was collected for each sample; at the same time, the whole brain was taken and homogenized with 3 times the amount of PBS for analysis. The […] method was used to determine drug concentrations in plasma and brain tissue, and the proportion of compounds entering the brain (B/P) was calculated based on the AUC of the compound. Pharmacokinetic parameters were calculated using Phoenix WinNonlin 7.0. The administration vehicle was 5% CMC-Na aqueous solution.

The target of another data set is human α1β3γ2 receptors (Homo sapiens (Human), UniProt P14867+P18507). Nature of the data set: 3H-flunitrazepam competition binding, human α1β3γ2 GABAA receptor. To be noted: HEK293 cell membranes, 1 nM 3H-flunitrazepam; read-out: Ki α1. In outline:
(§1)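 HEK293 membranes stably expressing each human receptor subtype ([…]) competed against 1 nM 3H-flunitrazepam in Tris buffer, 1 h at room temperature; flumazenil defined the low-signal control. Eight-point 4-fold test-compound dilutions; GF/C filtration and scintillation counting gave IC50 by curve fitting, converted to Ki.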

For data set [2], the target named is α5-GABAA receptor (α5, β3, γ2 subunits) (Homo sapiens (Human), UniProt P18507+P31644). Nature of the data set: Whole cell patch clamp, inverse agonist efficacy in HEK293 cells expressing α5-GABAA receptor. The class given is cell-based. To be noted: HEK293, drug 100 nM, GABA 0.05 μM, −60 mV; read-out: Compound inverse agonist efficacy %. Summed up:
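Stable HEK293 line co-expressing human α5, β3, γ2 subunits; whole-cell patch clamp at −60 mV, inward current evoked by 0.05 μM GABA, then compound at 100 nM in GABA solution applied. Effect derived from leak, pre- and post-drug GABA currents.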
In general terms: In patch-clamp work, channel activity is measured electrically.

In data set [3] the target is human α5β3γ2 receptors (α5-GABAA receptor) (Homo sapiens (Human), UniProt P18507+P31644). Nature of the data set: 3H-flunitrazepam competition binding, human α5β3γ2 GABAA receptor. The note with it: HEK293 cell membranes, 1 nM 3H-flunitrazepam; read-out: α5-GABAAR Ki. In outline: as §1
The next data set deals with human α2β3γ2 receptors (Homo sapiens (Human), UniProt P18507+P47869). Nature of the data set: 3H-flunitrazepam competition binding, human α2β3γ2 GABAA receptor. To be noted: HEK293 cell membranes, 1 nM 3H-flunitrazepam; read-out: Ki α2. Summed up: as §1
In another data set the test system is α5-GABAA receptor. The note with it: GABA 1 μM, highest concentration of L-655,708; cited from earlier work.

As to `Cc1nnn(-c2ccc(C(F)F)cc2)c1COc1ccc(N2CCNC(=O)C2)cn1` [Example 21, 4-(6-[(1-(4-(Difluoromethyl)phenyl)-4-methyl-1H-1,2,3-triazol-5-yl)methoxy]pyridin-3-yl)piperazin-2-one], the inhibitory constant (Ki) was 21.8 nM at human α3β3γ2 receptors, 36.7 nM on human α1β3γ2 receptors, 1.24 nM in data set [3] and 41.7 nM at human α2β3γ2 receptors. Further, the Kp in data set [1] (1 mg/kg) was found to be 0.045. The molecule also registered a Cmax in data set [1] (male SD rats, 1 mg/kg) of 576 ng/mL. In addition, the inhibition at 0.1 µM in data set [2] is 49.3%.
For `Cc1nnn(-c2ccc(C(F)F)cc2)c1COc1ccc(N2CCN(C)C(=O)C2)nn1` [Example 26, 4-(6-((1-(4-(Difluoromethyl)phenyl)-4-methyl-1H-1,2,3-triazol-5-yl)methoxy)pyridazin-3-yl)-1-methylpiperazin-2-one], the Ki at human α3β3γ2 receptors is 23.4 nM; at human α1β3γ2 receptors it was 47.8 nM; in data set [3] it was 1.32 nM; at human α2β3γ2 receptors, 45.4 nM. The Kp in data set [1] (1 mg/kg) turned out to be 0.0336. In data set [1] (male SD rats, 1 mg/kg), this molecule registered a Cmax of 637 ng/mL. For the same molecule, the inhibition at 0.1 µM in data set [2] was determined as 50.3%.
Regarding `Cc1nnn(-c2ccc(C(F)F)cc2)c1COc1ccc(N2CC(C(=O)NC(C)C)C2)nn1` [Example 155, 1-(6-((1-(4-(Difluoromethyl)phenyl)-4-methyl-1H-1,2,3-triazol-5-yl)methoxy)pyridazin-3-yl)-N-isopropylazetidine-3-carboxamide], the inhibition constant Ki stood at 68.7 nM on human α3β3γ2 receptors, 389 nM on human α1β3γ2 receptors, 5.39 nM in data set [3] and 231 nM at human α2β3γ2 receptors. In data set [1] (3 mg/kg), the Kp amounted to 0.0166. This molecule also yielded a Cmax in data set [1] (male SD rats, 3 mg/kg) of 3020 ng/mL. In addition, the inhibition at 0.1 µM in data set [2] was determined as 42.3%.
For `Cc1nnn(-c2ccc(C(F)F)cc2)c1COc1cnc(N2CCNC(=O)C2)cn1` [Example 169, 4-(5-((1-(4-(Difluoromethyl)phenyl)-4-methyl-1H-1,2,3-triazol-5-yl)methoxy)pyrazin-2-yl)piperazin-2-one], the inhibition constant (Ki) at human α3β3γ2 receptors turned out to be 26.3 nM; at human α1β3γ2 receptors, 73.5 nM; in data set [3], 1.11 nM; at human α2β3γ2 receptors it was 27.2 nM. In addition, the “B/P (proportion of compounds entering the brain)” value in data set [1] (male SD rats, p.o., 3 mg/kg, based on AUC) was determined as 3.81%. Moreover, the concentration in data set [1] (male SD rats, 3 mg/kg) peaked (Cmax) at 3180 ng/mL. The inhibition at 0.1 µM in data set [2] came out at 40.5%.
Consider `O=C1NCCN2CCN(c3ccc(OCc4c(Cl)nnn4-c4ccc(C(F)F)cc4)nn3)C[C@@H]12` [Example 181, (S)-8-(6-((4-Chloro-1-(4-(difluoromethyl)phenyl)-1H-1,2,3-triazol-5-yl)methoxy)pyridazin-3-yl)hexahydro-2H-pyrazino[1,2-a]pyrazin-1(6H)-one], for which the Ki at human α3β3γ2 receptors was 44.6 nM; at human α1β3γ2 receptors it was 140 nM; in data set [3], 1.21 nM; on human α2β3γ2 receptors, 64.2 nM. The Kp in data set [1] (3 mg/kg) is 0.0099. In addition, the Cmax in data set [1] (male SD rats, 3 mg/kg) was found to be 2670 ng/mL. For the same molecule, in data set [2], the inhibition at 0.1 µM came out at 51.2%.
Turning to `CCOC(=O)c1ncn2c1[C@@H]1CCCN1C(=O)c1cc(OC)ccc1-2` [L-655,708], in the data set on α5-GABAA receptor, the “suppression of the current induced by GABA” value is 15%.

As usually defined, the Ki is the equilibrium dissociation constant of an inhibitor or competing ligand from its target. Usually Cmax stands for the peak of the concentration-time curve.
